The values below come from patent US7018642B2 (The Procter & Gamble Company, priority 2001, dated 2006).

The structures appear in SMILES notation.

What all share (assay type): cell-based
Assay [1] has as its system P. fluorescens strain ATCC 13525. Nature of the assay: Improved biofilm dispersion screen (already-formed biofilms, crystal violet). The following applies: Pseudomonas fluorescens, ATCC13525, 20 mM NaOH step, positive = dispersion, negative = enhancement of pre-existing biofilm, quadruplicate, read-out: average percentage reduction of biofilm relative to the two control values (dispersion). Put shortly: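 Biofilms were grown 24 h in duplicate plates without compound; one plate was crystal violet-stained for t0. On the other, fresh medium plus compound at 390 μM final was added for 22–26 h more, with DMSO controls giving t24. Value: average % biofilm reduction versus t0 and t24, quadruplicates.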

In assay [2] the test system is S. epidermidis strain ATCC 35984. Nature of the assay: Biofilm prevention screen (96-well microplate, crystal violet). The settings on record: Staphylococcus epidermidis, positive = prevention, negative = enhancement of biofilm formation, quadruplicate, read-out: average percentage reduction of biofilm formed relative to DMSO controls; for inhibition at 32 µM: ATCC35984, 32 μM; for inhibition at 160 µM: ATCC35984, 160 μM; for inhibition at 390 µM: ATCC35984, 390 μM. Put shortly:
(§1)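 Biofilm prevention is scored as percent decrease in CV-stained biomass relative to DMSO controls after 16–26 hours' growth with compound at final 250–500, 160 or 32 μM. Incubation was 30° C for both Pseudomonas strains and 37° C for S. epidermidis, with shaking.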

Assay [3] deals with P. fluorescens strain ATCC 13525. Described as above. The following applies: Pseudomonas fluorescens, positive = prevention, negative = enhancement of biofilm formation, quadruplicate, read-out: average percentage reduction of biofilm formed relative to DMSO controls; for inhibition at 32 µM: ATCC13525, 32 μM; for inhibition at 160 µM: ATCC13525, 160 μM; for inhibition at 390 µM: ATCC13525, 390 μM. Put shortly:
as §1

The test system of assay [4] is P. aeruginosa strain PAO1. The description is as above. The settings on record: Pseudomonas aeruginosa, positive = prevention, negative = enhancement of biofilm formation, quadruplicate, read-out: average percentage reduction of biofilm formed relative to DMSO controls. Put shortly: as §1

Regarding `CCCCCCCCCCNC(=O)[C@@H]1CCCN1` [Compound 32, L-proline n-decyl amide], the inhibition at 390 µM in assay [1] was 0%; in assay [2], 97%; in assay [3], 95%; in assay [4], 22%. Moreover, the values for the inhibition at 32 µM in assay [2], in assay [3] and in assay [4] were -3%, 9% and -15%, respectively. Besides, the inhibition at 160 µM in assay [2] was 100%; in assay [3], 55%; in assay [4], -43%.
For `CCCCCCCCCCCCNC(=O)[C@@H]1CCCN1` [Compound 168], the inhibition at 390 µM in assay [1] was -3%; in assay [2] it was 98%; in assay [3] it was 93%; in assay [4] it was 91%. Besides, the inhibition at 32 µM in assay [2] turned out to be 101%; in assay [3], 26%; in assay [4] it was 3%. Also, the inhibition at 160 µM in assay [2] is 100%; in assay [3], 97%; in assay [4], 53%.
As to `O=C(NCCCCCCCCCCCCNC(=O)[C@H]1CCCN1)[C@H]1CCCN1` [Compound 226, D-proline 1,12-diaminododecane bisamide], the inhibition at 390 µM in assay [1] was found to be 32%; in assay [2], 100%; in assay [3], 69%; in assay [4] it was 95%. The figures for the inhibition at 32 µM in assay [2], in assay [3] and in assay [4] were 24%, -19% and -23%, respectively. In addition, the inhibition at 160 µM is 101% in assay [2], 10% in assay [3] and 96% in assay [4].
